Assays:
Assay type in all cases: functional
HepG2 [1] = experiment: Hepatoprotective activity against APAP-induced cytotoxicity in human HepG2 cells assessed as cell viability at 40 uM pretreated for 8 hrs followed by APAP addition for 36 hrs by MTT assay (reference value: 68.1%); settings: time 44 hrs, read-out: Activity
HepG2 [2] = experiment: Hepatoprotective activity against APAP-induced cytotoxicity in human HepG2 cells assessed as cell viability at 40 to 80 uM pretreated for 8 hrs followed by APAP addition for 36 hrs by MTT assay (reference value: 68.1%); settings: dose 40-80 µM, time 44 hrs
HepG2 [3] = experiment: Hepatoprotective activity against APAP-induced cytotoxicity in human HepG2 cells assessed as cell viability at 50 ug/mL pretreated for 8 hrs followed by APAP addition for 36 hrs by MTT assay (reference value: 68.1%); settings: time 44 hrs, read-out: Activity

Compound	viability at 40 µM (HepG2 [1]) [%]	Activity (HepG2 [2]) [%]	other results
C=CC1C(CC(OC)OC)C(C(=O)O[C@H]2CC3C(C(=O)OC)=CO[C@@H](O[C@@H]4O[C@H](CO)[C@@H](O)[C@H](O)[C@H]4O)C3[C@H]2C)=CO[C@H]1O[C@@H]1O[C@H](CO)[C@@H](O)[C@H](O)[C@H]1O (stereo partly specified)	75.6		
C=C[C@H]1[C@H](O[C@@H]2O[C@H](CO)[C@@H](O)[C@H](O)[C@H]2O)OC=C(C(=O)O[C@H]2C[C@@H]3C(C(=O)OC)=CO[C@@H](O[C@@H]4O[C@H](CO)[C@@H](O)[C@H](O)[C@H]4O)[C@@H]3[C@H]2C)[C@H]1C[C@@H]1O[C@@H]2[C@@H](O)[C@@H](OC[C@H]3O[C@@](CO)(O[C@H]4O[C@H](CO)[C@@H](O)[C@H](O)[C@H]4O)[C@@H](O)[C@@H]3O)O[C@H](CO)[C@@H]2O1		75.6	
C=C[C@H]1[C@H](O[C@@H]2O[C@H](CO)[C@@H](O)[C@H](O)[C@H]2O)OC=C(C(=O)O[C@H]2C[C@@H]3CCOC(=O)[C@@H]3[C@H]2C)[C@H]1C[C@@H](O)O[C@@H](O)C[C@@H]1C(C(=O)O[C@H]2C[C@@H]3CCOC(=O)[C@@H]3[C@H]2C)=CO[C@@H](O[C@@H]2O[C@H](CO)[C@@H](O)[C@H](O)[C@H]2O)[C@@H]1C=C	75.6		
C=C[C@H]1[C@H](O[C@@H]2O[C@H](CO)[C@@H](O)[C@H](O)[C@H]2O)OC=C(C(=O)O[C@H]2C[C@@H]3C(C(=O)OC)=CO[C@@H](O[C@@H]4O[C@H](CO)[C@@H](O)[C@H](O)[C@H]4O)[C@@H]3[C@H]2C)[C@H]1CC=O		75.6	
COc1cc([C@H]2Oc3cc([C@H]4Oc5cc(O)cc(O)c5C(=O)[C@@H]4O)ccc3O[C@@H]2CO)ccc1O [SILYBIN A]			viability at 50 µg/mL (HepG2 [3]): 90.9%
C=C[C@H]1[C@H](O[C@@H]2O[C@H](CO)[C@@H](O)[C@H](O)[C@H]2O)OC=C2C(=O)OCC[C@H]21 [SWEROSIDE]		75.6	

— ChEMBL document CHEMBL6153134, “Anti-inflammatory and Hepatoprotective Iridoid Glycosides from the Roots of Gomphandra mollis” (J Nat Prod, 2025)
